Test results taken from the supplement of paper PMC13380429.
± gives the standard deviation of the averaged measurements.

Assays:
Settings in all cases: 72 h
Calu-3 [1] = experiment: relative viability EC50 (midpoint between 100% and the lowest measured viability); higher = less toxic
Caco-2 [2] = experiment: as above
U2OS [3] = experiment: as above
HepG2 [4] = experiment: as above
Vero E6 [5] = experiment: as above
Calu-3 [6] = experiment: drug sensitivity score (DSS) for viability; higher = more toxic; extreme values may be limits of the assay
Caco-2 [7] = experiment: as above
U2OS [8] = experiment: as above
HepG2 [9] = experiment: as above
Vero E6 [10] = experiment: as above
Calu-3 [11] = experiment: cell viability relative to DMSO; higher = less toxic
Caco-2 [12] = experiment: as above
U2OS [13] = experiment: as above
HepG2 [14] = experiment: as above
Vero E6 [15] = experiment: as above

Structure (SMILES)	relative viability EC50 (Calu-3 [1]) [µM]	relative viability EC50 (Caco-2 [2]) [µM]	relative viability EC50 (U2OS [3]) [µM]	relative viability EC50 (HepG2 [4]) [µM]	relative viability EC50 (Vero E6 [5]) [µM]	drug sensitivity score (Calu-3 [6])	drug sensitivity score (Caco-2 [7])	drug sensitivity score (U2OS [8])	drug sensitivity score (HepG2 [9])	drug sensitivity score (Vero E6 [10])	cell viability (Calu-3 [11]; 1 nM) [%]	cell viability (Calu-3 [11]; 10 nM) [%]	cell viability (Calu-3 [11]; 100 nM) [%]	cell viability (Calu-3 [11]; 1000 nM) [%]	cell viability (Calu-3 [11]; 10000 nM) [%]	cell viability (Caco-2 [12]; 1 nM) [%]	cell viability (Caco-2 [12]; 10 nM) [%]	cell viability (Caco-2 [12]; 100 nM) [%]	cell viability (Caco-2 [12]; 1000 nM) [%]	cell viability (Caco-2 [12]; 10000 nM) [%]	cell viability (U2OS [13]; 1 nM) [%]	cell viability (U2OS [13]; 10 nM) [%]	cell viability (U2OS [13]; 100 nM) [%]	cell viability (U2OS [13]; 1000 nM) [%]	cell viability (U2OS [13]; 10000 nM) [%]	cell viability (HepG2 [14]; 1 nM) [%]	cell viability (HepG2 [14]; 10 nM) [%]	cell viability (HepG2 [14]; 100 nM) [%]	cell viability (HepG2 [14]; 1000 nM) [%]	cell viability (HepG2 [14]; 10000 nM) [%]	cell viability (Vero E6 [15]; 1 nM) [%]	cell viability (Vero E6 [15]; 10 nM) [%]	cell viability (Vero E6 [15]; 100 nM) [%]	cell viability (Vero E6 [15]; 1000 nM) [%]	cell viability (Vero E6 [15]; 10000 nM) [%]
O=C(O)COCCN1CCN(C(c2ccccc2)c2ccc(Cl)cc2)CC1 (stereo not given) [cetirizine]	> 10	> 10	> 10	> 10	> 10	0	0	0	0	0	94.7 ± 5.4	105 ± 1.1	100.25 ± 0.071	95.8 ± 8.7	102 ± 2.5	91 ± 0.14	81.8 ± 7.7	97.8 ± 6.4	88 ± 12	107 ± 5.2	95.5 ± 3.3	98.05 ± 0.071	96.2 ± 0.14	93.8 ± 4.5	102 ± 1.4	100 ± 1.4	100 ± 1.1	101 ± 5.7	103 ± 3.5	102 ± 4.1	93.7 ± 5.7	97.3 ± 1.6	88.5 ± 4.5	95.3 ± 2.4	100 ± 1.8
C[C@@H]1C[C@H]2[C@@H]3C[C@H](F)C4=CC(=O)C=C[C@]4(C)[C@@]3(Cl)[C@@H](O)C[C@]2(C)[C@H]1C(=O)COC(=O)C(C)(C)C [clocortolone-pivalate]	> 10	> 10	> 10	> 10	> 10	0	0	0	0	0	92.9	88.2	102	96.2	97.3	90.6	99.2	91	100	112	95.7	93	90.1	90.7	93.4	98.8	93.6	99.1	103	108	101	90.6	99.6	95.4	110
CN(C)[C@@H](CCOc1cccc2ccccc12)c1ccccc1 [dapoxetine]	> 10	> 10	> 10	> 10	> 10	1.3	0	0	0	0.1	103	104	105	91.7	81.3	98.5	96	101	102	89.6	103	103	103	98.2	89.3	94.1	104	97.1	95.7	89	97.5	101	98.7	98.8	88.6
COc1ccc2c(c1)CN(C)CC2c1ccc(Cl)c(Cl)c1 (stereo not given) [diclofensine]	> 10	> 10	> 10	> 10	> 10	0	0.6	0	0	0	103	106	107	101	87.9	96.6	94	86	95.6	83.5	99.3	103	93.3	100	93.2	101	98.8	95.9	103	97.2	96	99.3	94.5	95.7	91.1
C[C@H]1c2cccc(O)c2C(=O)C2=C(O)[C@]3(O)C(=O)C(C(N)=O)=C(O)[C@@H](N(C)C)[C@@H]3[C@@H](O)[C@@H]21 [doxycycline]	> 10	> 10	> 10	> 10	> 10	0	0.05 ± 0.071	0	0	0	95.8 ± 5.4	108 ± 3.1	107 ± 3.3	104 ± 2.9	99.8 ± 8	90.2 ± 11	96.8 ± 0.85	92.6 ± 3.1	90.1 ± 5.4	88 ± 0.92	96.5 ± 1.9	98.8 ± 1.1	96.2 ± 2	101 ± 2.3	98.6 ± 4	100 ± 2.8	94.3 ± 5.3	98.7 ± 9.5	108 ± 21	94.8 ± 4.3	101 ± 2.9	95.8 ± 4.3	101 ± 4.5	97.8 ± 9.4	100 ± 1.8
N[C@@]1(C(=O)O)CC[C@H]2[C@H](C(=O)O)[C@H]21 [eglumetad]	> 10	> 10	> 10	> 10	> 10	0	0	0	0	0	95.7	102	97.3	93.2	104	107	104	93.8	102	97.2	101	101	97.3	96.6	96	113	92.5	102	97.6	116	99	99	94.9	100	96.6
CSc1ccc(C(=O)/C=C/c2cc(C)c(OC(C)(C)C(=O)O)c(C)c2)cc1 [elafibranor]	> 10	> 10	> 10	> 10	> 10	0	1	0	0	0	101	97	100	108	114	99.5	92.5	103	90.5	84.6	99.7	94	97.7	98.1	94.3	101	108	93.5	99.1	96.3	90.8	97	89.5	91.1	98.5
Cc1cc(O)c2c(c1)C(=O)c1cc(O)cc(O)c1C2=O [emodin]	> 10	> 10	> 10	> 10	> 10	0	0	0	0	0	93.6	104	95	94.2	102	95.4	91	92.8	93.9	97	94.2	103	93.8	101	103	105	96.7	105	98.5	106	103	95	97.1	100	106
COc1cc(C)nc(-n2nc(C)cc2OC)n1 [epirizole]	> 10	> 10	> 10	> 10	> 10	0	0	0	0	0	91.9	92.2	88.3	97.3	86	83.5	92.7	82.3	97.4	89	95.1	101	94.8	99.8	97	103	96.7	105	94	97.8	112	99.3	110	105	94.9
C[C@@H](O)[C@H]1C(=O)N2C(C(=O)O)=C(S[C@@H]3CN[C@H](C(=O)Nc4cccc(C(=O)O)c4)C3)[C@H](C)[C@H]12 [ertapenem]	> 10	> 10	> 10	> 10	> 10	0	2.7	0	0	0	98.2	99.7	94.4	89.7	97.8	101	114	84.3	96.3	85.9	94.7	98.9	96.8	101	99.5	90.9	97.4	93.2	103	91.9	106	98.3	106	100	103
CN1CC[C@@]2(C)c3cc(O)ccc3N(C)[C@@H]12 [eseroline-(-)]	> 10	> 10	> 10	> 10	> 10	0.1	1.9	0	0.2	0	101	101	99.1	112	84.6	103	97.9	105	89.6	77.5	106	105	99.1	101	96.4	98.2	103	110	109	83.7	96.3	97.9	96.1	94.2	96
CCc1cc(C(N)=S)ccn1 [ethionamide]	> 10	> 10	> 10	> 10	> 10	0	0	0	0	0	90.8	92.2	98.7	93	95.7	95.7	92.7	96.5	92.6	102	97.8	94	97.1	94.7	96.3	100	90.6	97.9	102	102	96.7	101	101	91.5	99.7
CCOC(=O)c1ccc(O)cc1 [ethyl-paraben]	> 10	> 10	> 10	> 10	> 10	0	0	0	0	0	96.6	93	106	97.3	92	101	94.3	101	99.2	100	96.3	97	107	98.3	106	108	102	101	94.7	97.8	102	99.7	98.9	104	99.8
